Test results taken from patent EP1192131B1, “METHOD OF INHIBITING AMYLOID PROTEIN AGGREGATION AND IMAGING AMYLOID DEPOSITS USING ISOINDOLINE DERIVATIVES” (Warner-Lambert Company LLC, priority 1999, dated 2000).
“And” between values parts separate entries of the source, which are not always exact repeats. Equal values may be shown once. Read-outs that look alike come from different tables or passages of the source.

Columns and labels:
Aβ (1-42) = target: T1, Aβ (1-42) (Homo sapiens, UniProt P05067); assay: BATYM assay, Aβ (1-42) aggregation, Thioflavin T fluorescence; assay type: biochemical
T1 construct: Required Aβ (1-42)(California Peptide) was dried from its hexafluoroisopropanol (HFIP) stock solution; purchased California Peptide
T1 sequence (P05067 672-713): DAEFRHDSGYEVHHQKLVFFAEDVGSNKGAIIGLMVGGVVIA
Method: Required Aβ (1-42)(California Peptide) was dried from its hexafluoroisopropanol (HFIP) stock solution. The Aβ (1-42) was dissolved in dimethylsulfoxide (DMSO) and then mixed with phosphate buffered saline (PBS) (pH 7.4). The mixed Aβ (1-42) solution was filtered through a […] Omnipore membrane syringe filter (Millipore, Bedford, MA). The compound to be tested in DMSO (50 times concentrate) was put into each well (0.5 µL/well) of a 96-well plate. The Aβ (1-42) solution was added into each well (24.5 µL/well). The plate was centrifuged at 1,000 g for 5 minutes and incubated at 37°C for 1 day (Aβ 1-42; final concentration 100 µM).
After incubation Thioflavin T (ThT) (30 µM) solution in glycine-NaOH buffer (pH 8.5, 50 mM) was added into each well (250 µL/well), fluorescence was measured (ex. 440/20 nm; em 485/20 nm) using a fluorescence plate reader. The inhibitory activity was calculated as the reduction of fluorescence with the following formula: Inhibition (%) = {(F(Aβ)-F(Aβ+compound)}/{F(Aβ)-F (solvent+compound)} × 100 [formula]
The IC50s (concentration of test compound required to cause a 50% inhibition of aggregation) were calculated by a curve fitting program using the following equation. The data were obtained from two different experiments in triplicate. Inhibition (x) = 100-100/{1 + (x/IC50)^n }, [formula] x = concentration of tested compound (M), IC50 = (M), n = Hill coefficient.

Aβ (1-40) peptide = target: T2, Aβ (1-40) peptide (Homo sapiens, UniProt P05067); assay: BAPA (Beta-Amyloid Peptide Aggregation, pH 6.0), filtration endpoint assay; assay type: biochemical
T2 construct: 10 µL 0.5 mg/mL Aβ (1-40) peptide in 20% HFIP
T2 sequence (P05067 672-711): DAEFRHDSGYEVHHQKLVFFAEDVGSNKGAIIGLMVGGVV
Method: BAPA (Beta-Amyloid Peptide Aggregation
This assay is used to provide a measure of inhibition by a compound against the aggregation behavior of the beta amyloid peptide.
The purpose of this assay is to provide a higher volume method of assaying the amount of beta amyloid aggregation using an endpoint assay based on filtration. In this assay, hexafluoroisopropanol (HFIP) is used to break down the initial amyloid peptide to a monomer state and use a concentration of 33 µM which is high enough so that aggregation will occur at pH 6.0 in several hours.
β-Amyloid Peptide Aggregation. pH 6 0 (BAPA)
In a 96-well plate (Costar 3794), we add 25 µL 50 mM Phosphate Buffer, pH 6.0, 10 µL 0.5 mg/mL Aβ (1-40) peptide in 20% HFIP + 0.1 µL/assay radioiodinated ^125I Aβ (1-40) [^125I Aβ(1-40)], and 1 µL of the compound to be tested starting at 50 mM with a concentration of DMSO <1%. Then, we incubate for 2 to 4 hours at room temperature. We stop the reaction with 200 µL of 50 mM phosphate buffer, pH 6.0, and filter it through a 0.2 µm 96-well filter plate (Millipore MAGU N22) We wash the filter plate with 100 µL of the same phosphate buffer. Aggregation was detected on a Microbeta counter after impregnating the filters with Meltilex (1450-441) and is corrected for background

[1] = Aβ 1-42 final concentration 100 µM, 37°C, 1 day, letter in parentheses = lot of compound (no letter = Lot P), read-out: BATYM IC50
[2] = Aβ (1-40) 33 µM, pH 6.0, 2 to 4 hours at room temperature; letter in parentheses = lot of compound (no letter = Lot P); read-out: BAPA IC50
[3] = read-out: BATYM IC50, Aβ 1-42 final concentration 100 µM, 37°C, 1 day, letter in parentheses = lot of compound (no letter = Lot P)
[4] = read-out: BAPA IC50; Aβ (1-40) 33 µM, pH 6.0, 2 to 4 hours at room temperature; letter in parentheses = lot of compound (no letter = Lot P)

Molecule | IC50 (Aβ (1-42); [1]) | IC50 (Aβ (1-40) peptide; [2]) | IC50 (Aβ (1-42); [3]) | IC50 (Aβ (1-40) peptide; [4])
2-[2-(3,4-Dimethylphenyl)-2,3-dihydro-1H-isoindol-5-ylamino]benzoic acid [Example 9] | 32.9 µM | 13 µM |  | 
2-[2-(3-chlorophenyl)-2,3-dihydro-1H-isoindol-5-ylamino]benzoic acid [Example 7] | 37.3 µM | 28 µM |  | 
2-[2-(4-chlorophenyl)-2,3-dihydro-1H-isoindol-5-ylamino]benzoic acid [Example 8] | 33.4 µM | 19 µM |  | 
O=C(O)c1ccccc1Nc1ccc2c(c1)CN(c1ccc(Cl)c(Cl)c1)C2 [Example 4, 2-[2-(3,4-Dichlorophenyl)-2,3-dihydro-1H-isoindol-5-ylamino]benzoic acid] | 26.1 µM and 22.2 µM | 101 µM and > 100 µM and 93 µM |  | 
COc1cc(Nc2ccc3c(c2)CN(c2ccc(Cl)c(Cl)c2)C3)c(C(=O)O)cc1[N+](=O)[O-] [Example 6, 2-[2-(3,4-Dichlorophenyl)-2,3-dihydro-1H-isoindol-5-ylamino]-4-methoxy-5-nitro-benzoic acid] | 13.5 µM and 14.6 µM | 14 µM |  | 
O=C(O)c1ccccc1Nc1ccc2c(c1)CN(c1ccc(Cl)c(C(F)(F)F)c1)C2 [Example 10, 2-[2-(4-Chloro-3-trifluoromethylphenyl)-2,3-dihydro-1H-isoindol-5-ylamino]benzoic acid] |  |  | 34.6 µM | 16 µM
Cc1ccc(N2Cc3ccc(Nc4ccc([N+](=O)[O-])cc4C(=O)O)cc3C2)cc1C [Example 12, 2-[2-(3,4-Dimethyl-phenyl)-2,3-dihydro-1H-isoindol-5-ylamino]-5-nitro-benzoic acid] | 11.7 µM | 5 µM |  | 
O=C(O)c1cc([N+](=O)[O-])ccc1Nc1ccc2c(c1)CN(c1ccc(Cl)cc1)C2 [Example 15, 2-[2-(4-Chloro-phenyl)-2,3-dihydro-1H-isoindol-5-ylamino]-5-nitro-benzoic acid] | 32.5 µM | > 100 µM |  | 
Clc1ccc(N2Cc3ccc(Nc4ccccc4-c4nnn[nH]4)cc3C2)cc1Cl [Example 16, [2-(3,4-Dichloro-phenyl)-2,3-dihydro-1H-isoindol-5-yl]-[2-(1H-tetrazol-5-yl)-phenyl]-amine] | 29.5 µM | 86 µM |  | 
Nc1ccc(Nc2ccc3c(c2)CN(c2ccc(Cl)c(Cl)c2)C3)c(C(=O)O)c1 [Example 17, 5-Amino-2-[2-(3,4-dichloro-phenyl)-2,3-dihydro-1H-isoindol-5-ylamino]-benzoic acid] | 20 µM | 40 µM |  | 
O=C(O)c1cc([N+](=O)[O-])ccc1Nc1ccc2c(c1)CN(c1ccccc1)C2 [Example 18, 5-Nitro-2-(2-phenyl-2,3-dihydro-1H-isoindol-5-ylamino)-benzoic acid] | 16.6 µM | 97 µM |  | 
O=C(O)c1cc([N+](=O)[O-])ccc1Nc1ccc2c(c1)CN(c1ccc(Cl)c(C(F)(F)F)c1)C2 [Example 19, 2-[2-(4-Chloro-3-trifluoromethyl-phenyl)-2,3-dihydro-1H-isoindol-5-ylamino]-5-nitro-benzoic acid] |  |  | 12.8 µM | > 10 µM
O=C(O)c1cc([N+](=O)[O-])ccc1Nc1ccc2c(c1)CN(c1cccc(F)c1)C2 [Example 20, 2-[2-(3-Fluoro-phenyl)-2,3-dihydro-1H-isoindol-5-ylamino]-5-nitro-benzoic acid] | 11.5 µM | > 60 µM |  | 
COc1cccc(N2Cc3ccc(Nc4ccc([N+](=O)[O-])cc4C(=O)O)cc3C2)c1 [Example 21, 2-[2-(3-Methoxy-phenyl)-2,3-dihydro-1H-isoindol-5-ylamino]-5-nitro-benzoic acid] | 9.64 µM | > 60 µM |  | 
O=C(O)c1ccccc1Nc1ccc2c(c1)CN(c1cccc(F)c1)C2 [Example 22, 2-[2-(3-Fluoro-phenyl)-2,3-dihydro-1H-isoindol-5-ylamino]-benzoic acid] | 84 µM | > 60 µM |  | 
O=C(O)c1cc(F)ccc1Nc1ccc2c(c1)CN(c1ccc(Cl)c(Cl)c1)C2 [Example 23, 2-[2-(3,4-Dichloro-phenyl)-2,3-dihydro-1H-isoindol-5-ylamino]-5-fluoro-benzoic acid] | 34.1 µM | 62 µM |  | 
COc1cc(N2Cc3ccc(Nc4ccccc4C#N)cc3C2)cc(OC)c1OC [Example 25, 2-[2-(3,4,5-Trimethoxy-phenyl)-2,3-dihydro-1H-isoindol-5-ylamino]-benzonitrile] | > 100 µM | 25 µM |  | 
COc1cccc(N2Cc3ccc(Nc4ccccc4C(=O)O)cc3C2)c1 [Example 26, 2-[2-(3-Methoxy-phenyl)-2,3-dihydro-1H-isoindol-5-ylamino]-benzoic acid] | 64.9 µM | > 60 µM |  | 
